MBC and MBEC data for 12 molecules are collected here from ChEMBL document CHEMBL4052697, “Chimeric analogs of human β-defensin 1 and θ-defensin disrupt pre-established bacterial biofilms” (2017).

In brackets after ≈: the same amount, converted by molar mass. Activity calls are given as the source filed them. The rule behind the calls is not given here. Non-standard residues stand in square brackets, D forms with d. Residues, ends and D or L forms follow the SMILES beside them. NMeA = CN[C@@H](C)C(=O)O

Format in all cases: functional
Test [1] deals with Staphylococcus aureus. Kind of test: Bactericidal activity against Staphylococcus aureus NCTC 8530 planktonic forms.
Test [2] deals with Escherichia coli. Kind of test: Bactericidal activity against Escherichia coli MG1655 planktonic forms.
Test [3] relates to Staphylococcus aureus. Kind of test: Antibiofilm activity against pre-established 36 hrs old bacterial biofilms of Staphylococcus aureus NCTC 8530 incubated for 4 hrs by XTT assay. A general note: Tetrazolium dyes change colour on reduction, which living cells bring about.
In test [4] the test system is Escherichia coli. In words: Antibiofilm activity against pre-established 36 hrs old bacterial biofilms of Escherichia coli MG1655 incubated for 4 hrs by XTT assay.

Regarding `CCCCCCCCCCCCCC(=O)N[C@@H](CCC(=O)O)C(=O)N[C@@H](CC(C)C)C(=O)N[C@@H](CC(=O)O)C(=O)N[C@@H](CCCNC(=N)N)C(=O)N[C@H](C(=O)NCC(=O)N[C@@H](Cc1ccc(O)cc1)C(=O)NCC(=O)N[C@H](C(=O)N[C@@H](C)C(=O)N[C@@H](CCCNC(=N)N)C(=O)N[C@@H](CCCNC(=N)N)C(=O)N[C@H](CCCCN)C(=O)N[C@H](CCCCN)C(=O)N[C@@H](CCCNC(=N)N)C(=O)O)[C@@H](C)O)[C@@H](C)CC`, the values for the minimal bactericidal concentration (MBC) in test [1] and in test [2] were 10 µM (≈ 20.3 µg/mL) and 5 µM (≈ 10.1 µg/mL), respectively. Also, the MBEC result in test [3] and in test [4] was “inactive” each time.

In the case of `CC[C@H](C)[C@H](NC(=O)[C@H](CCC(=O)O)NC(=O)[C@@H](NC(=O)CNC(=O)[C@H](CO)NC(=O)[C@H](CC(C)C)NC(=O)[C@H](CO)NC(=O)[C@H](CCC(=O)O)NC(=O)[C@@H](CCCNC(=N)N)NC(=O)[C@@H](NC(=O)[C@H](C)NC(=O)[C@@H](CCCNC(=N)N)NC(=O)CNC(=O)[C@@H](NC(=O)[C@@H](CCCNC(=N)N)NC(=O)[C@H](Cc1ccc(O)cc1)NC(=O)[C@@H](NC(=O)[C@H](C)N)[C@@H](C)O)[C@@H](C)O)[C@@H](C)O)C(C)C)C(=O)N[C@@H](CO)C(=O)NCC(=O)N[C@H](CCCNC(=N)N)C(=O)N[C@@H](CC(C)C)C(=O)N[C@@H](Cc1ccc(O)cc1)C(=O)N[C@H](CCCNC(=N)N)C(=O)N[C@@H](CC(C)C)C(=O)N[C@@H](CCCNC(=N)N)C(=O)O`, the MBC – broadly, the lowest tested concentration that kills the bacteria rather than only halting them – in test [1] is greater than 100 µM; in test [2] it was 50 µM (≈ 148 µg/mL). Moreover, the MBEC result in test [3] and in test [4] was “inactive” in each case.

In the case of `CCCCCCCCCCCCCC(=O)N[C@@H](CCC(=O)O)C(=O)N[C@@H](CC(C)C)C(=O)N[C@@H](CC(=O)O)C(=O)N[C@H](CCCNC(=N)N)C(=O)N[C@H](C(=O)NCC(=O)N[C@@H](Cc1ccc(O)cc1)C(=O)NCC(=O)N[C@H](C(=O)N[C@@H](C)C(=O)N[C@H](CCCNC(=N)N)C(=O)N[C@H](CCCNC(=N)N)C(=O)N[C@@H](CCCCN)C(=O)N[C@@H](CCCCN)C(=O)N[C@@H](CCCNC(=N)N)C(=O)O)[C@@H](C)O)[C@@H](C)CC`, the values for the minimal bactericidal concentration (MBC) in test [1] and in test [2] were 10 µM (≈ 20.3 µg/mL) and 5 µM (≈ 10.1 µg/mL), respectively. Also, the MBEC entry in test [3] and in test [4] was “inactive” each time.

With `CC[C@H](C)[C@H](NC(=O)CNC(=O)[C@H](CCCNC(=N)N)NC(=O)[C@@H](NC(=O)[C@@H](NC(=O)[C@@H](NC(=O)CNC(=O)[C@H](Cc1ccc(O)cc1)NC(=O)[C@H](CCCNC(=N)N)NC(=O)[C@H](Cc1ccc(O)cc1)NC(=O)[C@H](CCC(=O)O)NC(=O)[C@@H](NC(=O)[C@H](CO)NC(=O)[C@H](Cc1ccc(O)cc1)NC(=O)[C@H](CO)NC(=O)[C@H](CCCNC(=N)N)NC(=O)[C@H](CCCNC(=N)N)NC(=O)[C@H](Cc1cnc[nH]1)NC(=O)[C@@H](NC(=O)[C@H](Cc1ccccc1)NC(=O)[C@H](C)NC)[C@@H](C)O)[C@@H](C)O)[C@@H](C)O)[C@@H](C)O)C(C)C)C(=O)N[C@@H](CCCNC(=N)N)C(=O)N[C@@H](Cc1cnc[nH]1)C(=O)N[C@@H](CCCNC(=N)N)C(=O)N[C@@H](Cc1ccccc1)C(=O)N[C@@H](CC(C)C)C(=O)O` (H-[NMeA]FTHRRSYSTEYRYGTTVRGIRHRFL-OH), the MBC in test [1] and in test [2] was 10 µM (≈ 32.5 µg/mL) in each case. In addition, the MBEC result in test [3] and in test [4] was “inactive” each time.

As for `CCCCCCCCCCCC(=O)N[C@@H](C)C(=O)N[C@H](C(=O)N[C@@H](Cc1ccc(O)cc1)C(=O)N[C@H](CCCNC(=N)N)C(=O)N[C@H](C(=O)NCC(=O)N[C@H](CCCNC(=N)N)C(=O)N[C@@H](C)C(=O)N[C@H](C(=O)N[C@H](CCCNC(=N)N)C(=O)N[C@@H](CCC(=O)O)C(=O)N[C@@H](CO)C(=O)N[C@@H](CC(C)C)C(=O)N[C@@H](CO)C(=O)NCC(=O)N[C@H](C(=O)N[C@@H](CCC(=O)O)C(=O)N[C@H](C(=O)N[C@@H](CO)C(=O)NCC(=O)N[C@H](CCCNC(=N)N)C(=O)N[C@@H](CC(C)C)C(=O)N[C@@H](Cc1ccc(O)cc1)C(=O)N[C@H](CCCNC(=N)N)C(=O)N[C@@H](CC(C)C)C(=O)N[C@@H](CCCNC(=N)N)C(=O)O)[C@@H](C)CC)C(C)C)[C@@H](C)O)[C@@H](C)O)[C@@H](C)O`, the values for the MBC in test [1] and in test [2] were 20 µM (≈ 63 µg/mL) and 10 µM (≈ 31.5 µg/mL), respectively. Further, the MBEC result in test [3] and in test [4] was “inactive” in each case.

Regarding `CCCCCCCCCCCCCC(=O)N[C@@H](C)C(=O)N[C@H](C(=O)N[C@@H](Cc1ccc(O)cc1)C(=O)N[C@H](CCCNC(=N)N)C(=O)N[C@H](C(=O)NCC(=O)N[C@H](CCCNC(=N)N)C(=O)N[C@@H](C)C(=O)N[C@H](C(=O)N[C@H](CCCNC(=N)N)C(=O)N[C@@H](CCC(=O)O)C(=O)N[C@@H](CO)C(=O)N[C@@H](CC(C)C)C(=O)N[C@@H](CO)C(=O)NCC(=O)N[C@H](C(=O)N[C@@H](CCC(=O)O)C(=O)N[C@H](C(=O)N[C@@H](CO)C(=O)NCC(=O)N[C@H](CCCNC(=N)N)C(=O)N[C@@H](CC(C)C)C(=O)N[C@@H](Cc1ccc(O)cc1)C(=O)N[C@H](CCCNC(=N)N)C(=O)N[C@@H](CC(C)C)C(=O)N[C@@H](CCCNC(=N)N)C(=O)O)[C@@H](C)CC)C(C)C)[C@@H](C)O)[C@@H](C)O)[C@@H](C)O`, the MBC was 7.5 µM (≈ 23.8 µg/mL) in test [1] and 5 µM (≈ 15.9 µg/mL) in test [2]. For the same molecule, the MBEC entry in test [3] and in test [4] was “inactive” each time.

For `CC[C@H](C)[C@H](NC(=O)[C@H](CCC(=O)O)NC(=O)[C@@H](NC(=O)CNC(=O)[C@H](CO)NC(=O)[C@H](CC(C)C)NC(=O)[C@H](CO)NC(=O)[C@H](CCC(=O)O)NC(=O)[C@H](CCCNC(=N)N)NC(=O)[C@@H](NC(=O)[C@H](C)NC(=O)[C@H](CCCNC(=N)N)NC(=O)CNC(=O)[C@@H](NC(=O)[C@H](CCCNC(=N)N)NC(=O)[C@H](Cc1ccc(O)cc1)NC(=O)[C@@H](NC(=O)[C@H](C)N)[C@@H](C)O)[C@@H](C)O)[C@@H](C)O)C(C)C)C(=O)N[C@@H](CO)C(=O)NCC(=O)N[C@@H](CCCNC(=N)N)C(=O)N[C@@H](CC(C)C)C(=O)N[C@@H](Cc1ccc(O)cc1)C(=O)N[C@@H](CCCNC(=N)N)C(=O)N[C@@H](CC(C)C)C(=O)N[C@@H](CCCNC(=N)N)C(=O)O`, the MBC in test [1] is greater than 100 µM; in test [2] it was 50 µM (≈ 148 µg/mL). Moreover, the MBEC result in test [3] and in test [4] was “inactive” each time.

As to `CC[C@H](C)[C@H](NC(=O)[C@H](CCCNC(=N)N)NC(=O)[C@H](CC(=O)O)NC(=O)[C@H](CC(C)C)NC(=O)[C@@H](N)CCC(=O)O)C(=O)NCC(=O)N[C@@H](Cc1ccc(O)cc1)C(=O)NCC(=O)N[C@H](C(=O)N[C@@H](C)C(=O)N[C@@H](CCCNC(=N)N)C(=O)N[C@@H](CCCNC(=N)N)C(=O)N[C@H](CCCCN)C(=O)N[C@H](CCCCN)C(=O)N[C@@H](CCCNC(=N)N)C(=O)O)[C@@H](C)O`, the figures for the minimum bactericidal concentration (MBC) in test [1] and in test [2] were 60 µM (≈ 109 µg/mL) and 20 µM (≈ 36.4 µg/mL), respectively. Moreover, the MBEC entry in test [3] and in test [4] was “inactive” throughout.

For the molecule `CCCCCCCCCCCCCC(=O)N[C@@H](C)C(=O)N[C@@H](Cc1ccccc1)C(=O)N[C@H](C(=O)N[C@@H](CCCNC(=N)N)C(=O)N[C@@H](CCCNC(=N)N)C(=O)N[C@@H](CCCNC(=N)N)C(=O)N[C@@H](CO)C(=O)N[C@@H](Cc1ccc(O)cc1)C(=O)N[C@@H](CO)C(=O)N[C@H](C(=O)N[C@@H](CCC(=O)O)C(=O)N[C@@H](Cc1ccc(O)cc1)C(=O)N[C@@H](CO)C(=O)N[C@@H](Cc1ccc(O)cc1)C(=O)NCC(=O)N[C@H](C(=O)N[C@H](C(=O)N[C@H](C(N)=O)C(C)C)[C@@H](C)O)[C@@H](C)O)[C@@H](C)O)[C@@H](C)O`, the minimum bactericidal concentration (MBC) in test [1] was determined as 20 µM (≈ 47.1 µg/mL); in test [2], 10 µM (≈ 23.5 µg/mL). For the same molecule, the MBEC result in test [3] and in test [4] was “inactive” in each case.

For the molecule `CCCCCCCCCCCCCC(=O)N[C@@H](C)C(=O)N[C@@H](Cc1ccccc1)C(=O)N[C@H](C(=O)N[C@H](CCCNC(=N)N)C(=O)N[C@H](CCCNC(=N)N)C(=O)N[C@H](CCCNC(=N)N)C(=O)N[C@@H](CO)C(=O)N[C@@H](Cc1ccc(O)cc1)C(=O)N[C@@H](CO)C(=O)N[C@H](C(=O)N[C@@H](CCC(=O)O)C(=O)N[C@@H](Cc1ccc(O)cc1)C(=O)N[C@@H](CO)C(=O)N[C@@H](Cc1ccc(O)cc1)C(=O)NCC(=O)N[C@H](C(=O)N[C@H](C(=O)N[C@H](C(N)=O)C(C)C)[C@@H](C)O)[C@@H](C)O)[C@@H](C)O)[C@@H](C)O`, the minimal bactericidal concentration (MBC) was determined as 50 µM (≈ 118 µg/mL) in test [1] and 20 µM (≈ 47.1 µg/mL) in test [2]. For the same molecule, the MBEC entry in test [3] and in test [4] was “inactive” in each case.

For `CCCCCCCCCCCC(=O)N[C@@H](C)C(=O)N[C@H](C(=O)N[C@@H](Cc1ccc(O)cc1)C(=O)N[C@@H](CCCNC(=N)N)C(=O)N[C@H](C(=O)NCC(=O)N[C@@H](CCCNC(=N)N)C(=O)N[C@@H](C)C(=O)N[C@H](C(=O)N[C@@H](CCCNC(=N)N)C(=O)N[C@@H](CCC(=O)O)C(=O)N[C@@H](CO)C(=O)N[C@@H](CC(C)C)C(=O)N[C@@H](CO)C(=O)NCC(=O)N[C@H](C(=O)N[C@@H](CCC(=O)O)C(=O)N[C@H](C(=O)N[C@@H](CO)C(=O)NCC(=O)N[C@@H](CCCNC(=N)N)C(=O)N[C@@H](CC(C)C)C(=O)N[C@@H](Cc1ccc(O)cc1)C(=O)N[C@@H](CCCNC(=N)N)C(=O)N[C@@H](CC(C)C)C(=O)N[C@@H](CCCNC(=N)N)C(=O)O)[C@@H](C)CC)C(C)C)[C@@H](C)O)[C@@H](C)O)[C@@H](C)O`, the MBC came out at 2 µM (≈ 6.3 µg/mL) in test [1] and 20 µM (≈ 63 µg/mL) in test [2]. In addition, the MBEC result in test [3] and in test [4] was “inactive” each time.

Take `CCCCCCCCCCCCCC(=O)N[C@@H](C)C(=O)N[C@H](C(=O)N[C@@H](Cc1ccc(O)cc1)C(=O)N[C@@H](CCCNC(=N)N)C(=O)N[C@H](C(=O)NCC(=O)N[C@@H](CCCNC(=N)N)C(=O)N[C@@H](C)C(=O)N[C@H](C(=O)N[C@@H](CCCNC(=N)N)C(=O)N[C@@H](CCC(=O)O)C(=O)N[C@@H](CO)C(=O)N[C@@H](CC(C)C)C(=O)N[C@@H](CO)C(=O)NCC(=O)N[C@H](C(=O)N[C@@H](CCC(=O)O)C(=O)N[C@H](C(=O)N[C@@H](CO)C(=O)NCC(=O)N[C@@H](CCCNC(=N)N)C(=O)N[C@@H](CC(C)C)C(=O)N[C@@H](Cc1ccc(O)cc1)C(=O)N[C@@H](CCCNC(=N)N)C(=O)N[C@@H](CC(C)C)C(=O)N[C@@H](CCCNC(=N)N)C(=O)O)[C@@H](C)CC)C(C)C)[C@@H](C)O)[C@@H](C)O)[C@@H](C)O`: the minimum bactericidal concentration (MBC) worked out at 7.5 µM (≈ 23.8 µg/mL) in test [1] and 5 µM (≈ 15.9 µg/mL) in test [2]. The MBEC result in test [3] and in test [4] was “inactive” throughout.
